In US9474754B2, “Pharmaceutical combinations comprising a B-RAF inhibitor, and EGFR inhibitor and optionally a PI3K-α inhibitor” (NOVARTIS AG, priority 2012, dated 2016):

What was measured:
CL-34 = assay: 72 hr cell titer Glo proliferation assay, CL-34; type: cell-based; settings: single agent, CL-34, BRAFV600E
Description: (§1) All cell lines express the BRAFV600E protein, except MDST8 which expresses the BRAFV600K variant. Cells harboring known or putative activating mutations in the PI3Kα gene are marked with a (*) and cells with PTEN loss marked with a (#). Cell proliferation was measured in 72 hr cell titer Glo™ assays and all results shown are the result of at least triplicate measurements. […] Interactions were deemed synergistic when scores ≧2.0 where observed.

MDST8 = assay: 72 hr cell titer Glo proliferation assay, MDST8; type: cell-based; settings: single agent, MDST8, BRAFV600K
Description: as §1

SNU-C5 = assay: 72 hr cell titer Glo proliferation assay, SNU-C5; type: cell-based; settings: single agent, SNU-C5 (PI3Kα mutation), BRAFV600E
Description: as §1

HT-29 = assay: 72 hr cell titer Glo proliferation assay, HT-29; type: cell-based; settings: Homo sapiens, single agent, HT-29 (PI3Kα mutation), BRAFV600E
Description: as §1

COLO 205 = assay: 72 hr cell titer Glo proliferation assay, COLO 205; type: cell-based; settings: Homo sapiens, single agent, COLO 205, BRAFV600E
Description: as §1

[1] = tested on: BRAF-mutant CRC-derived cell lines; assay: Proliferation of BRAF-mutant CRC-derived cell lines, panel summary; type: cell-based; settings: all cell lines tested
Description: as §1

CYP3A4 = CYP3A4 (Homo sapiens, UniProt P08684); assay: CYP3A4 interaction; type: in vitro ADME
Chain of CYP3A4 (P08684 whole entry): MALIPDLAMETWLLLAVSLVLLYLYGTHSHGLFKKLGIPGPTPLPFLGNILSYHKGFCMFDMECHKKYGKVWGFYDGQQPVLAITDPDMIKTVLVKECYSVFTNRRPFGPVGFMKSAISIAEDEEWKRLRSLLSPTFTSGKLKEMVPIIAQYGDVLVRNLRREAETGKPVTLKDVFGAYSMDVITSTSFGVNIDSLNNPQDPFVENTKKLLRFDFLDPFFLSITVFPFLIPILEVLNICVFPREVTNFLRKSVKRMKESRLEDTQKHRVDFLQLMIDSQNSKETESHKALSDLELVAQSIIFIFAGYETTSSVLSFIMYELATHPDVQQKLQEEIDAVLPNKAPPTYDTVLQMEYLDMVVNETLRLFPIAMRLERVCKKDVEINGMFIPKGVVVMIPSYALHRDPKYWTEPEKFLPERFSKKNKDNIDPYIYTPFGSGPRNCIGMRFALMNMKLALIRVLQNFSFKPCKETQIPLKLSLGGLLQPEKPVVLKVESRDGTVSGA

OUMS-23 = assay: 72 hr cell titer Glo proliferation assay, OUMS-23; type: cell-based; settings: single agent, OUMS-23 (PTEN loss), BRAFV600E
Description: as §1

LS411N = assay: 72 hr cell titer Glo proliferation assay, LS411N; type: cell-based; settings: Homo sapiens, LS-411N, single agent, BRAFV600E
Description: as §1

BCRP = target: T1, BCRP (Homo sapiens, UniProt Q9UNQ0); assay: BCRP interaction; type: in vitro ADME
T1 sequence (Q9UNQ0 1-655): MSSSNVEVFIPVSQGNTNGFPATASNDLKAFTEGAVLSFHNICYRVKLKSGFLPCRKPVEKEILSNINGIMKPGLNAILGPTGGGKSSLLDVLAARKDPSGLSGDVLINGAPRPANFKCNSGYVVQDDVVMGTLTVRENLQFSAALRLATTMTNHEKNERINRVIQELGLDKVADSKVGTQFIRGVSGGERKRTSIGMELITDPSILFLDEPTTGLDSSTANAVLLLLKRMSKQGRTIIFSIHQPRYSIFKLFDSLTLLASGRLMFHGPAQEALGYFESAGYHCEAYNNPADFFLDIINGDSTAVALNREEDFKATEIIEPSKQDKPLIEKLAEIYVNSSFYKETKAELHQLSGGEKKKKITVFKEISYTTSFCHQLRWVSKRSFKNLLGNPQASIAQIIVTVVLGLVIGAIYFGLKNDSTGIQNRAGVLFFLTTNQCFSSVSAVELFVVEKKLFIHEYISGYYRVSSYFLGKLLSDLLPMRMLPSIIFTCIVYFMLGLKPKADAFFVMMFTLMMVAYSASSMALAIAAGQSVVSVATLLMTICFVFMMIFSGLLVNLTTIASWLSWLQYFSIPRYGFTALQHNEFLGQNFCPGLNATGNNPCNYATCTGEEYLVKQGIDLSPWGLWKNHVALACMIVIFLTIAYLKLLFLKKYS

[2] = tested on: HT-29 human colorectal adenocarcinoma xenograft; type: in vivo; settings: for T/C: D29, 100×ΔT/ΔC for ΔT>0; for T/C / Mean Volume Day 1 / Mean Volume Day 29 / Mean Volume Change (ΔT): Cpd A 20 mg/kg po bid x 28, Cpd B 25 mg/kg po qd x 28, cetuximab 20 mg/kg ip biwk x 4, paclitaxel 30 mg/kg iv qod x 5; for Mean Volume Day 1: Day 1, start of dosing; for Mean Volume Change (ΔT): between D1 and D29; for Mean BW Nadir, day of nadir / Deaths NTR / Deaths TR / Regressions CR / Regressions PR: doses as in table; for Deaths NTR / Deaths TR / Regressions CR / Regressions PR: n = 10 per group; for Statistical Significance vs G1: vs Group 1 (vehicles), tumor volume change D1-D29
Description: A fresh suspension was prepared every two weeks and stored at room temperature.
A fresh suspension was prepared weekly and stored at 4° C.
Dosing solutions were freshly prepared for one group at a time.
Each agent was administered at a single dose level, individually and in dual and triple combinations, that were initiated on Day 1 (D1) in female nude mice with established subcutaneous tumors. […] Efficacy was determined from mean tumor volume changes between D1 and D29. Prism summarizes test results as not significant (ns) at P>0.05, significant (symbolized by “*”) at 0.01<P≦0.05, very significant (“**”) at 0.001<P≦0.01, and extremely significant (“***”) at P≦0.001.
For the purpose of statistical analyses, ΔTV, the difference in tumor volume between D1 (the start of dosing) and the endpoint day, was determined for every animal. […] The […] values are negative represent net tumor reduction for a group. […] Response to Combination Therapies (Groups 5-8)

SW1417 = assay: 72 hr cell titer Glo proliferation assay, SW1417; type: cell-based; settings: Homo sapiens, single agent, SW1417, BRAFV600E
Description: as §1

RKO = assay: 72 hr cell titer Glo proliferation assay, RKO; type: cell-based; settings: Homo sapiens, single agent, RKO (PI3Kα mutation), BRAFV600E
Description: as §1

Rat ADME bioavailability = type: in vivo; settings: pre-clinical

| SMILES | IC50 (CL-34) [nM] | IC50 (MDST8) [nM] | IC50 (SNU-C5) [nM] | IC50 (HT-29) [nM] | IC50 (COLO 205) [nM] | IC50 (OUMS-23) [nM] | IC50 (LS411N) [nM] | T/C [2] [%] | Mean Volume Day 1 [2] [mm^3] | Mean Volume Day 29 [2] [mm^3] | Mean Volume Change (ΔT) [2] [mm^3] | Mean BW Nadir, day of nadir [2] | Deaths NTR [2] | Deaths TR [2] | Regressions CR [2] | Regressions PR [2] | Statistical Significance vs G1 [2] | IC50 (SW1417) [nM] | IC50 (RKO) [nM] | further results |
| --- | --- | --- | --- | --- | --- | --- | --- | --- | --- | --- | --- | --- | --- | --- | --- | --- | --- | --- | --- | --- |
| COC(=O)N[C@@H](C)CNc1nccc(-c2cn(C(C)C)nc2-c2cc(Cl)cc(NS(C)(=O)=O)c2F)n1 [Compound A] | 30 | 319 | > 2700 | 49 | 5 | > 2700 | 18 | 95 | 122 | 1016 | 894 | Day 8 | 0 | 0 | 0 | 0 | ns (not significant (ns) at P>0.05) | – | – | single agent activity on proliferation [1]: significant single agent activity; metabolism (CYP3A4): mainly metabolized by CYP3A4; BCRP inhibition (BCRP): inhibitor of BCRP |
| Cc1nc(NC(=O)N2CCC[C@H]2C(N)=O)sc1-c1ccnc(C(C)(C)C(F)(F)F)c1 [Compound B, (S)-Pyrrolidine-1,2-dicarboxylic acid 2-amide 1-({4-methyl-5-[2-(2,2,2-trifluoro-1,1-dimethyl-ethyl)-pyridin-4-yl]-thiazol-2-yl}-amide)] | > 2700 | – | > 2700 | > 2700 | > 2700 | > 2700 | > 2700 | 57 | 122 | 660 | 538 | Day 8 | 0 | 0 | 0 | 0 | ns (not significant (ns) at P>0.05) | > 2700 | > 2700 | CYP3A4 inhibition (CYP3A4): time dependent inhibitor of CYP3A4; bioavailability (Rat ADME bioavailability): 58%; BCRP substrate (BCRP): substrate of BCRP |
| CC(=O)O[C@H]1C(=O)[C@@]2(C)[C@H]([C@H](OC(=O)c3ccccc3)[C@]3(O)C[C@H](OC(=O)[C@H](O)[C@@H](NC(=O)c4ccccc4)c4ccccc4)C(C)=C1C3(C)C)[C@]1(OC(C)=O)CO[C@@H]1C[C@@H]2O [Paclitaxel, paclitaxel, reference compound] | – | – | – | – | – | – | – | 11 | 122 | 229 | 107 | Day 11 | 0 | 0 | 0 | 0 | ** (very significant (“**”) at 0.001<P≦0.01) | – | – | – |
| C#Cc1cccc(Nc2ncnc3cc(OCCOC)c(OCCOC)cc23)c1 [Erlotinib, erlotinib, reference compound] | > 2700 | > 2700 | > 2700 | > 2700 | > 2700 | > 2700 | > 2700 | – | – | – | – | – | – | – | – | – | – | > 2700 | > 2700 | – |
